Target: CACNA1H (Homo sapiens, UniProt O95180)
Assay: whole-cell voltage clamp, HEK-293
Assay type: cell-based

Sequence of CACNA1H (O95180 whole entry): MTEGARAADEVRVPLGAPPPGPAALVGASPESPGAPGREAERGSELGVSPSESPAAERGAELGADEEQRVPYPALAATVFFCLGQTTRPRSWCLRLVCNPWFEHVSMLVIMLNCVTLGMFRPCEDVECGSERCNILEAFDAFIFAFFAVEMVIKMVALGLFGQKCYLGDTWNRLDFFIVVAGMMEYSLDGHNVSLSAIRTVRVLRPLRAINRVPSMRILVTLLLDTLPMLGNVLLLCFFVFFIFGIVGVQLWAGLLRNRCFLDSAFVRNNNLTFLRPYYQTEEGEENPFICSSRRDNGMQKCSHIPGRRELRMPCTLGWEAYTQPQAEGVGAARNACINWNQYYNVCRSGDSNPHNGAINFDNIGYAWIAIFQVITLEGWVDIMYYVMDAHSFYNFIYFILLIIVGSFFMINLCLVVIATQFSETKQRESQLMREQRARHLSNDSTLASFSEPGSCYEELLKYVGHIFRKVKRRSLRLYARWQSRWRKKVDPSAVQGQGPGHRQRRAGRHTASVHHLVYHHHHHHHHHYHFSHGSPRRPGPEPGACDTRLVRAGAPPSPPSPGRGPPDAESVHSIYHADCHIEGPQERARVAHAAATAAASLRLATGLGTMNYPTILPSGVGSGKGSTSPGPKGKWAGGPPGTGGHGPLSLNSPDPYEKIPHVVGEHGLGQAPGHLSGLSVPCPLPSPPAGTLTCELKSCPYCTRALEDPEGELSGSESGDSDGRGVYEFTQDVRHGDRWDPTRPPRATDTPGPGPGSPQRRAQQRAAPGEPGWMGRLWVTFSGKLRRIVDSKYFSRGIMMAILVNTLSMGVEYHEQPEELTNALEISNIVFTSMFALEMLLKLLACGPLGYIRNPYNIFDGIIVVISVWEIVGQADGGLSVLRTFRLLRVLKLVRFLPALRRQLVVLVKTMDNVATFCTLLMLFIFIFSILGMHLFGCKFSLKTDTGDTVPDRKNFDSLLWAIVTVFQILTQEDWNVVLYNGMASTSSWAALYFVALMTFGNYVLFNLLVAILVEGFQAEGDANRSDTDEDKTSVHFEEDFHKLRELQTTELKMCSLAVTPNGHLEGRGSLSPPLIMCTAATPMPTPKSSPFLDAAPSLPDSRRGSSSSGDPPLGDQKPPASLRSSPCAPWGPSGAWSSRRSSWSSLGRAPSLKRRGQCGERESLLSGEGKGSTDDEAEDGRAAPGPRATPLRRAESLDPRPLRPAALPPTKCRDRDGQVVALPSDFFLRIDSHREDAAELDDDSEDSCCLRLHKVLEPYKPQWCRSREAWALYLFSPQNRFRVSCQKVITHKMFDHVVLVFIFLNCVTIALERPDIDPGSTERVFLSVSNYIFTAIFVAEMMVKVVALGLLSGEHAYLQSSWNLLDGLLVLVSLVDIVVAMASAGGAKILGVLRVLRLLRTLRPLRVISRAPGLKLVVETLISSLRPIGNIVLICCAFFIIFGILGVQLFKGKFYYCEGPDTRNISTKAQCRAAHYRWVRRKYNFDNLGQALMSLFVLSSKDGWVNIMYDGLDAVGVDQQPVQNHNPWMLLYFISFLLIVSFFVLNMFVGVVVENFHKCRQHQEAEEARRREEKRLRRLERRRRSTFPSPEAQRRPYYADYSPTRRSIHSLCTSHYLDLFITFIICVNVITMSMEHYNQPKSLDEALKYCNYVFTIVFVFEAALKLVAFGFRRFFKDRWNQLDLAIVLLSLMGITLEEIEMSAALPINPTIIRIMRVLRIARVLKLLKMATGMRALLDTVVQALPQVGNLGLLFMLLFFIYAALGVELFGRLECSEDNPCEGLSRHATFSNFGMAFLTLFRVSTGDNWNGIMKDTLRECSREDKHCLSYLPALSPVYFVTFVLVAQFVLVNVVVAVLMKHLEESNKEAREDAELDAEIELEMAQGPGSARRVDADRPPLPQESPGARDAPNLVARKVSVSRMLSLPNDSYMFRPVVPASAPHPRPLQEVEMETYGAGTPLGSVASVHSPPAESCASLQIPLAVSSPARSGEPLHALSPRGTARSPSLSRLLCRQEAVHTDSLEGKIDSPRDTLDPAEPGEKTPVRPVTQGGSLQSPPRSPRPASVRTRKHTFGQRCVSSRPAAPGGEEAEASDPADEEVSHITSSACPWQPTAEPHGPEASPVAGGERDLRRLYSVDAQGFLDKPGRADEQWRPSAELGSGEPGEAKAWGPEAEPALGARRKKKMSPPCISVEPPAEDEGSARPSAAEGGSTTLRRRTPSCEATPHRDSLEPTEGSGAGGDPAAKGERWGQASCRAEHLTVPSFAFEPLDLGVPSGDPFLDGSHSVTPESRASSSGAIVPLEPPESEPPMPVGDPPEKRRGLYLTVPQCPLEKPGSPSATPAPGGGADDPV

Molecule `Fc1ccc(CN(CC(F)(F)F)C2CCN(CCCc3c[nH]c4ccc(Cn5cncn5)cc34)CC2)cc1` [TTA-I1, N-(4-fluorobenzyl)-1-{3-[5-(1H-1,2,4-triazol-1-ylmethyl)-1H-indol-3-yl]propyl}-N-(2,2,2-trifluoroethyl)piperidin-4-amine] has an IC50 of 3 nM.

Reference: article PMC2902375 (Neuroreport, 2009)
